Measured values as given in patent US7812121B2 (priority 2006, dated 2010).
Entries after “also recorded” stand apart in the source; their conditions may differ. One block for each molecule: values may come before it. Ends that are not written are not given here.

What was measured:
[1] = Incubation with U937 cell lysate, SDS-PAGE; format: in vitro ADME; details: 24 hour test period, compared with A2G GLP-2 mimetibody (SEQ ID NO: 5)
Experimental: The purified Pro substitution variants were incubated with U937 cell lysate in the presence of CompleteMini protease inhibitor tablets (Cat. No. 1 836 153, Roche Applied Science, Indianapolis, Ind.) for 0, 12, or 24 hours. Afterwards, GLP-2 mimetibody variants were purified using Protein A beads and resolved on a SDS-PAGE gel.

[2] = CD spectra secondary structure; format: physicochemical; details: 0.2 mg/mL peptide in PBS, 25° C.
Experimental: The secondary structures of tested peptides were determined using 0.2 mg/mL peptide solutions in PBS. Briefly, CD spectra were collected in triplicate at 1 nm intervals at 25° C. in 0.1 cm path length cell. Secondary structures were determined by fitting of the CD spectra using CD spectra software (CD Spectra Deconvolution software 2.1). All tested peptides contained peaks corresponding to the presence of alpha helices.

[3] = SEC-SLS solution molecular weight / self-association; format: physicochemical; details: PBS (pH 7.5); for SEC-SLS elution / association state of peptides: 1 mg/ml
Experimental: Solution molecular weight of the peptides was measured by SEC-SLS. Briefly, peptide solutions in PBS (pH 7.5) at 0.4 to 2.0 mg/mL were fractionated over a Superdex peptide column (Amersham Pharmacia). The eluted peaks were monitored by static light scattering at 690 nm and solution molecular weight was determined at UV 280 nm using the Astra software package (Wyatt Inc.).

mutated human GLP-2R = biological target: T1, mutated human GLP-2R (Homo sapiens, UniProt O95838, E512D/G511A/L513V); assay: cAMP expression assay; format: cell-based; details: for EC50: Table 5, peptides 0.01 nM to 1.0 uM, 30-minute incubation at 37° C., read-out: cAMP in Vitro EC50 values; for less activity relative to wild type GLP-2: from cAMP EC50
T1 construct: expressed in transfected cells; host or cells: HEK 293E (clonal line, transfected)
T1 sequence (O95838 1-553 G511A/E512D/L513V): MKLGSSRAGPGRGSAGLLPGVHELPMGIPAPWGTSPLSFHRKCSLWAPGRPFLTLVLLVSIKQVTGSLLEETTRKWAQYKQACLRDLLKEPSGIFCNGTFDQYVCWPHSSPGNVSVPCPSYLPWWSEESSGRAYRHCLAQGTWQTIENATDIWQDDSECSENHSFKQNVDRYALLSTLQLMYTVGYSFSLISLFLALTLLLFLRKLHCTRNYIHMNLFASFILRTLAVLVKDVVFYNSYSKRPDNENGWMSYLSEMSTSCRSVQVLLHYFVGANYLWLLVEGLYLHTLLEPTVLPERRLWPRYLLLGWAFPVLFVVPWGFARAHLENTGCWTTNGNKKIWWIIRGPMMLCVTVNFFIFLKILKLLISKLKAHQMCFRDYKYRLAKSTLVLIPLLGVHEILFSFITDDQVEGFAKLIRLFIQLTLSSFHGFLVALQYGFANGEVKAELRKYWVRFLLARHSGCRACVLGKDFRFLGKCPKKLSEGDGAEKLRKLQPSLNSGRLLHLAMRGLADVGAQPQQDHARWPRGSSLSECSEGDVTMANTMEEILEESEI
From the text: To achieve this goal, a clonal cell line expressing a mutated human GLP-2R was generated by transfecting HEK 293E cells. The mutated human GLP-2R differs from the wild-type human GLP-2R (SEQ ID NO: 35) at three amino acid positions within the C-terminal intracellular region (SEQ ID NO: 36).
The CAMP expression was quantitated using the cAMP Direct Screen System (Cat. No. CSD 200, Applied Biosystems, Bedford, Mass.).
This assay was based on the cAMP Direct screen system from Applied Biosystems utilizing a cell line expressing mutated huGLP-2R in HEK 293E cells. Peptide at concentrations ranging from 0.01 nM to 1.0 uM in PBS with 0.5% BSA was added to ˜50,000 cells suspended in 96-well plates. After a 30-minute incubation at 37° C., Lysis Buffer followed by luminescence reagents (Applied Biosystems) was added according to the manufacturers' procedures (Applied Biosystems Luminescence protocol: cAMP-Screen Direct System). Luminescence was quantitated using a TopCount liquid scintillation analyzer (PerkinElmer), and data was processed using Softmax software (Molecular Devices Corporation).

[4] = Pharmacokinetics in mice (TRF assay of active mimetibody); format: in vivo
From the text: Blood was collected at different time points into citrate buffer containing protease inhibitors to minimize the possibility of ex vivo degradation and plasma was separated by centrifugation.
A time resolved fluorescence (TRF) assay was used to measure active mimetibody. Active mimetibody reflects the intact N-terminus of the peptide still attached to the Fc region of the mimetibody.

CD1 mice = assay: Mucosal weight gain in small intestine, 10 days daily s.c. dosing; format: in vivo
From the text: Afterwards, the mice were euthanized and the small intestines were removed, flushed with saline, and processed as described below.
(§1) Specifically, 4 cm sections were harvested: (1) immediately distal to the pylorus (duodenum), (2) starting 2 cm distal of the ligament of Treitz (jejunum), and (3) immediately proximal to the cecum (ileum). The remaining small intestine from ˜6 cm distal of the ligament of Treitz to 4 cm proximal to the cecum was used to prepare mucosal scrapings. From the proximal and distal ends of the remnant, an equal distance was removed until a 15 cm section remained, the remnant was cut longitudinally, rinsed, and the mucosal layer was removed using the short end of a glass microscope slide. The wet weight of the intact intestinal segments and mucosa was measured.

[5] = SEC-SLS solution molecular weight / self-association; format: physicochemical; details: purified mimetibody
mice = assay: Pharmacodynamics, dosing regimens, 11 day study; format: in vivo
From the text: as §1
The duration of the study was 11 days and tissue was processed as described in Example 4.

normal mice = assay: Upper gastrointestinal transit, FITC-dextran method; format: in vivo; details: 30 minute test; for upper gastrointestinal transit: single injection 4 mg/kg 4 days before, 4 mg/kg
Experimental: On the day of study, upper gastrointestinal transit was measured using the FITC-dextran method. This method provides both, a measure of gastrointestinal transit and a readout of the pattern of distribution of the test meal along the gastrointestinal tract. Mice were fed a test meal of […] of FITC-dextran solution (5 mg/ml of 70,000 molecular weight dextran conjugated to fluorescein-isothiocyanate in 0.5% methylcellulose/deionized water) administered intragastrically by an 18 gauge curved feeding tube. Following oral administration of the FITC-dextran test meal, mice were returned to their home cages. It was shown that a 30 min test period was the optimum duration for detecting accelerated transit, while a 45 min test period was optimum for detecting delayed transit. Following the appropriate test period, mice were sacrificed by carbon dioxide exposure. The entire gastrointestinal tract from the lower esophageal sphincter to the terminal colon was removed. The bowel segments were opened along the mesenteric border. The tissue and luminal contents of the stomach, 10 equal segments of small intestine, the cecum, and 3 equal segments of colon were placed in individual Eppendorf tubes containing 1 ml of PBS. The tissue was vigorously mixed on a table-top vortex, and solid materials were pelleted by centrifugation. Aliquots of the cleared supernatant were read in duplicate on a 96-well fluorescence plate reader to quantify the magnitude of the fluorescent signal in each segment of bowel. These values were used to calculate the Geometric Center (GC), which is defined as the weighted average distribution of the fluorescent signal along the gastrointestinal tract: GC=Σ(% of total fluorescent signal per segment×segment number)/100. Higher values represent faster rates of transit on scale of 1 to 15. […] The mimetibody-induced shift in the distribution pattern of FITC-dextran is shown in the upper panel. […] The GC is calculated in the lower panel for statistical comparison.

Molecule: SEQ ID NO: 44: A2G GLP-2 mimetibody Pro substitution variant, V2 GALVAVSP (HGDGSFSDEMNTILDNLAARDFINWLIQTKITDGSGGGSGALVAVSPESKYGPPCPPCP; Mimetibody)
- degradation / resistance to proteolysis [1]: less degradation

- Helix [2]: 19.6%
- Random coil [2]: 37.9%
- association state ([3]; 0.4 mg/mL): monomer
- SEC-SLS elution / association state of peptides [3]: overlapping dimer and monomer peaks
- stimulation of cAMP expression (mutated human GLP-2R; clonal HEK 293E line expressing mutated human GLP-2R): stimulated cAMP expression
Molecule: CC[C@H](C)[C@H](NC(=O)[C@H](Cc1ccccc1)NC(=O)[C@H](CC(=O)O)NC(=O)[C@H](CCCNC(=N)N)NC(=O)[C@H](C)NC(=O)[C@H](C)NC(=O)[C@H](CC(C)C)NC(=O)[C@H](CC(N)=O)NC(=O)[C@H](CC(=O)O)NC(=O)[C@H](CC(C)C)NC(=O)[C@@H](NC(=O)[C@@H](NC(=O)[C@H](CC(N)=O)NC(=O)[C@H](CCSC)NC(=O)[C@H](CCC(=O)O)NC(=O)[C@H](CC(=O)O)NC(=O)[C@H](CO)NC(=O)[C@H](Cc1ccccc1)NC(=O)[C@H](CO)NC(=O)CNC(=O)[C@H](CC(=O)O)NC(=O)[C@H](C)NC(=O)[C@@H](N)Cc1c[nH]cn1)[C@@H](C)O)[C@@H](C)CC)C(=O)N[C@@H](CC(N)=O)C(=O)N[C@@H](Cc1c[nH]c2ccccc12)C(=O)N[C@@H](CC(C)C)C(=O)N[C@H](C(=O)N[C@@H](CCC(N)=O)C(=O)N[C@H](C(=O)N[C@@H](CCCCN)C(=O)N[C@H](C(=O)N[C@H](C(=O)N[C@@H](CC(=O)O)C(=O)O)[C@@H](C)O)[C@@H](C)CC)[C@@H](C)O)[C@@H](C)CC [SEQ ID NO: 1, GLP-2, reference compound]

Molecule: SEQ ID NO: 43: A2G GLP-2 mimetibody Pro substitution variant, V2 GALVAVPS (HGDGSFSDEMNTILDNLAARDFINWLIQTKITDGSGGGSGALVAVPSESKYGPPCPPCP; cysteine pairing not given here; also: part of GLP-2 mimetibody)
- degradation / resistance to proteolysis [1]: less degradation

- Random coil [2]: 41.4%
- Helix ([2]; listed as GLP-2 (A2G, N16G, L17Q)): 17.0%
- Helix ([2]; listed as GLP-2(A2G, N16G, L17Q)): ~17%
- SEC-SLS elution / association state of peptides [3]: mainly monomeric peptide
- EC50 (mutated human GLP-2R): 3.5 nM
- less activity relative to wild type GLP-2 (mutated human GLP-2R): 2 ×
Molecule: HGDGSFSDEMNTILDGQAARDFINWLIQTKITD [SEQ ID NO: 55, GLP-2(A2G, N16G, L17Q)]

Molecule: GLP-1 [SEQ ID NO: 79, reference compound]
- Helix [2]: 16.8%
- Random coil [2]: 41.9%
- SEC-SLS elution / association state of peptides [3]: single peak with molecular weight within the expected monomer size

- Random coil [2]: 41.8%
- Helix ([2]; listed as GLP-2 (A2G, L17Q)): 16.9%
- Helix ([2]; listed as GLP-2(A2G, L17Q)): ~17%
- SEC-SLS elution / association state of peptides [3]: mainly monomeric peptide
- EC50 (mutated human GLP-2R): 5.2 nM
- less activity relative to wild type GLP-2 (mutated human GLP-2R): 3 ×
Molecule: HGDGSFSDEMNTILDNQAARDFINWLIQTKITD [SEQ ID NO: 54, GLP-2(A2G, L17Q)]

Molecule: SEQ ID NO: 5: A2G GLP-2 mimetibody, IgG4 Hg-CH2-CH3 with S228P and P234A/L235A
- calculated half-life ([4]; CD1 mice, 3 mg/kg intravenously or subcutaneously, TRF active mimetibody): 26.5 h
- half-life higher than that of the GLP-2 peptide ([4]; mimetibody in mice vs GLP-2 peptide in humans): more than 200 fold
- increase in mucosal wet weight vs control mimetibody (CD1 mice; 0.8 mg/kg (0.26 nmole), p<0.0001): statistically significant
- increase in mucosal wet weight vs control mimetibody (CD1 mice; 8 mg/kg (2.6 nmole), p<0.0004): statistically significant
- mucosal wet weight (mucosal scrapings) (CD1 mice; female CD1 mice, daily s.c. for 10 days, dose response): dose dependant increase; also recorded: dose-dependent increase
- effective in vivo dose lower than A2G GLP-2 peptide (CD1 mice; on a molar basis): 50 fold
- SEC-SLS association state of mimetibodies [5]: dimer
- mucosal weight difference to control mimetibody (mice; 4 mg/kg every day or every other day, 11 days): more pronounced
- mucosal weight compared to control mimetibody (mice; 4 mg/kg once per week, 11 days): significantly increased mucosal weight
- duodenum and jejunum section wet weight over control mimetibody (mice; 4 mg/kg, all regimens except the single dose): significant increase in weight
- upper gastrointestinal transit (normal mice; listed as A2G GLP-2 mimetibody): significant acceleration of intestinal transit
- upper gastrointestinal transit (normal mice; listed as GLP-2 mimetibody): acceleration of upper gastrointestinal transit
- Geometric Center (GC) (normal mice; single injection 4 days before, scale of 1 to 15, normal mice GC=6): 7.5

B1: SEQ ID NO: 4: A2S GLP-2 mimetibody, IgG4 Hg-CH2-CH3 with S228P and P234A/L235A (protein)
chain: HSDGSFSDEMNTILDNLAARDFINWLIQTKITDGSGGGSGTLVTVSSESKYGPPCPPCPAPEAAGGPSVFLFPPKPDTLMISRTPEVTCVVVDVSQEDPEVQFNWYVDGVEVHNAKTKPREEQFNSTYRVVSVLTVLHQDWLNGKEYKCKVSNKGLPSSIEKTISKAKGQPREPQVYTLPPSQEEMTKNQVSLTCLVKGFYPSDIAVEWESNGQPENNYKTTPPVLDSDGSFFLYSRLTVDKSRWQEGNVFSCSVMHEALHNHYTQKSLSLSLGK
modifications: Mimetibody
- SEC-SLS association state of mimetibodies [5]: dimer
